According to patent publication US8637521B2, “Substituted piperazin-2,5-diones and their use as multifunctional bioactive compounds” (priority 2006, dated 2014):
Several values for one entry are separate records, joined by “and”; a condition that tells them apart may be missing. Identical values can stand only once.

What was measured:
[1] = system: CFU-S population in the bone marrow; assay: Spleen colony formation (CFU-S) by bone marrow cells of peptide-treated intact donor mice; assay type: in vivo, (CBA×C57 B1) F1 mice; settings: for Colony count CFU-8 - S per 10^5 cells M ± M: control 11.2 ± 0.4; for Colony count CFU-8 - S per 10^5 cells M ± m: control 9.9 ± 0.7
Method: The effect of tested substances on intact bone marrow was studied in vivo. […] Two days after administration of preparation, the mice were killed. Bone marrow suspension was prepared and injected intravenously to lethally irradiated mice. The colony forming activity was evaluated at day 8. Test animals were (CBA×C57 B1) F1 mice (30 mice per trial, average from 3 tests).

Anti-OVA antibody titers = assay: Adjuvant activity, anti-OVA antibody titers by ELISA (Example 8); assay type: in vivo, Balb/c mice; settings: for Anti-protein antibody titer (pooled sera) / Stimulation index / Anti-protein antibody titer (for individual sera): Table 7
Method: Adjuvant activity was tested on 11 groups of Balb/c mice (obtained from Stolbovaya Breeding Station). Each group consisted of 7 animals. Three immunizations were performed as follows:
• Group 1—ovalbumin 25 micrograms per animal (Mouse Nos. 1 to 7) • Group 2—ovalbumin 25 micrograms per animal+CFA (Complete Freund's adjuvant) (Mouse Nos. 8 to 14) • Group 3—ovalbumin 25 micrograms per animal+adjuvant of compound 33a 100 micrograms per animal (Mouse Nos. 15 to 21) • Group 4—ovalbumin 25 micrograms per animal+adjuvant of compound 33a 10 micrograms per animal (Mouse Nos. […]) • Group 5—ovalbumin 25 micrograms per animal+adjuvant of compound 33a 1 microgram per animal (Mouse Nos. […]) • Group 6—ovalbumin 25 micrograms per animal+adjuvant of compound 33b 100 micrograms per animal (No. 36 to 42) • Group 7—ovalbumin 25 micrograms per animal+adjuvant of compound 33b 10 micrograms per animal (Mouse Nos. 43 to 49) • Group 8—ovalbumin 25 micrograms per animal+adjuvant of compound 33b 1 microgram per animal (Mouse Nos. 50 to 56) • Group 9—ovalbumin 25 micrograms per animal+adjuvant of compound 17 100 micrograms per animal (Mouse Nos. 57 to 63) • Group 10—ovalbumin 25 micrograms per animal+adjuvant of compound 1710 micrograms per animal (Mouse Nos. 64 to 70) • Group 11—ovalbumin 25 micrograms per animal+adjuvant of compound 171 microgram per animal (Mouse Nos. 71 to 77) Second Immunization:
The same set 14 days after first immunization by injection of 12.5 micrograms of ovalbumin/mouse to mouse nos. 1 to 77.
The same set 28 days after first immunization by injection of 12.5 micrograms of ovalbumin/mouse to mouse nos. 1 to 77.
On day 35 after first immunization, blood samples from each mouse were collected.
OVA (10 micrograms/ml) solution in 0.05 M sodium carbonate buffer (pH 9.5) was added to plate wells, 0.1 ml per well and incubated at 4° C. for 16 hours. The OVA solution was then removed and the plate was washed 4 times with PBS containing 0.05% Tween-20. Such washing was performed after each incubation stage. Serial twofold dilutions of sera (starting from 1:100 or 1:1000) were added to the wells, 0.1 ml per well and incubated at 37° C. for 1 hour followed by incubation (1 hour, 37° C.) with HRP-conjugated goat anti-mouse IgG antibodies (0.1 ml, 1 mg/ml in PBS) and then with a 0.1 mL substrate solution −0.05% H2O2 and 0.05% o-phenylene diamine in 0.05M sodium citrate buffer with a pH of 4.5. The reaction was stopped by adding 100 μl of 12.5% H2SO4. Absorbance was measured at a wavelength of 492 nm using a Multiscan Plus MKII (Flow Laboratories, Great Britain). Significant anti-protein antibody titer (for individual sera) was assessed as the serum dilution produced an absorbance value of more than 0.1 ODU and the minimum exceeds three times the control level. The antibody titer was presented and −log of dilution (FIGS. 2 and 3). The stimulation index for pooled sera was calculated by dividing the test pooled sera dilution producing OD=1 by the dilution of pooled sera from mice immunized without the adjuvant, producing OD=1. The results of the adjuvant activities of cyclo-L-Ala-L-Glu-(L-Trp-OH) (Compound 17), cyclo-L-Lys(N-acetyl-Glycosamine-N-acetyl-muramil)-L-Glu-(L-Trp-OH) (Compound 33a) and cyclo-D-Lys(N-acetyl-Glycosamine-N-acetyl-muramil)-D-Glu-(L-Trp-OH) (Compound 33b) are shown in Table 7 and the adjuvant activities of cyclo [L-Lys(Palmitoyil)-L-Glu(D-Trp-OH)] (Compound 26a) and cyclo [D-Lys(Palmitoyil)-D-Glu(D-Trp-OH)] (Compound 26b) are shown in Table 8 as well as in FIG. 4 which includes the results of the adjuvant activities of cyclo-L-Lys-L-Glu-(L-Trp-OH) (compound 19). It is noted that the peptides of compounds 26a and 26b are soluble in 0.1% NH4OH at a concentration of 1 mg per 1 to 2 ml.

[2] = Table 3, 0.2 microgram per mouse per os
[3] = 100 μg per animal, no adjuvant 4.5
[4] = 100 μg per animal, no adjuvant = 1
[5] = OVA + adjuvant 1 μg per animal, −log of dilution
[6] = OVA + adjuvant 10 μg per animal, −log of dilution
[7] = OVA + adjuvant 100 μg per animal, titer as −log of dilution, one value per mouse
[8] = Table 2, donor treated i/p, colonies day 8
[9] = Table 3, 0.2 microgram per mouse i/p
[10] = Table 3, 2.0 microgram per mouse per os
[11] = Table 3, 20.0 microgram per mouse per os
[12] = Table 3, 200.0 microgram per mouse per os

COC(=O)[C@@H](Cc1c[nH]c2ccccc12)NC(=O)CC[C@H]1NC(=O)[C@@H](C)NC1=O [Compound 1, Cyclo-D-Ala-D-Glu-(D-Trp-OMe)]
% suppression ([1]; Table 2, donor treated per os): 40%
Colony count CFU-8 - S per 10^5 cells M ± M ([1]; Table 2, donor treated per os): 7.4 ± 0.4 per 10^5 cells
% suppression ([1]; Table 2, donor treated s/c): 47%
Colony count CFU-8 - S per 10^5 cells M ± M ([1]; Table 2, donor treated s/c): 6.8 ± 0.4 per 10^5 cells
% suppression [1, 2]: 42%
Colony count CFU-8 - S per 10^5 cells M ± m [1, 2]: 6.5 ± 0.5 per 10^5 cells

COC(=O)[C@@H](Cc1c[nH]c2ccccc12)NC(=O)C[C@H]1NC(=O)[C@@H](C)NC1=O [Compound 12, Cyclo-D-Ala-D-Asp-(D-Trp-OMe)]
% suppression [1, 2]: 28%
Colony count CFU-8 - S per 10^5 cells M ± m [1, 2]: 8.4 ± 0.6 per 10^5 cells

C[C@H]1NC(=O)[C@@H](CC(=O)N[C@H](Cc2c[nH]c3ccccc23)C(=O)O)NC1=O [Compound 13, Cyclo-D-Ala-D-Asp-(D-Trp-OH)]
% suppression ([1]; Table 2, donor treated per os): 26.5%
Colony count CFU-8 - S per 10^5 cells M ± M ([1]; Table 2, donor treated per os): 9.0 ± 0.2 per 10^5 cells

NCCCCC1NC(=O)C(CCC(=O)NC(Cc2c[nH]c3ccccc23)C(=O)O)NC1=O [Compound 19, cyclo-L-Lys-L-Glu-(L-Trp-OH)]
adjuvant activity (FIG. 4), doses at which active (Anti-OVA antibody titers): active at 100 μg/kg

CC(=O)N[C@H]1[C@H](O[C@H]2[C@H](O[C@H](C)C(=O)NCCCC[C@@H]3NC(=O)[C@H](CCC(=O)N[C@@H](Cc4c[nH]c5ccccc45)C(=O)O)NC3=O)[C@@H](NC(C)=O)C(O)O[C@@H]2CO)O[C@H](CO)[C@@H](O)[C@@H]1O (stereo partly drawn) [Compound 33a, cyclo-L-Lys(N-acetyl-Glycosamine-N-acetyl-muramil)-L-Glu-(L-Trp-OH)]
adjuvant activity (FIG. 4), doses at which active (Anti-OVA antibody titers): active at 100 μg/kg
Anti-protein antibody titer (pooled sera) (Anti-OVA antibody titers; 1 μg per animal): 4.8
Stimulation index (Anti-OVA antibody titers; 1 μg per animal): 2.9
Anti-protein antibody titer (pooled sera) (Anti-OVA antibody titers; 10 μg per animal): 5.1
Stimulation index (Anti-OVA antibody titers; 10 μg per animal): 3.5
Anti-protein antibody titer (pooled sera) (Anti-OVA antibody titers; [3]): 5.5
Stimulation index (Anti-OVA antibody titers; [4]): 6.8
Anti-protein antibody titer (for individual sera) (Anti-OVA antibody titers; [5]): 5.1 (2×) and 4.2 and 5.4 (3×) and 4.1
Anti-protein antibody titer (for individual sera) (Anti-OVA antibody titers; [6]): 4.4 and 5.7 (4×) and 4.7 and 5.4
Anti-protein antibody titer (for individual sera) (Anti-OVA antibody titers; [7]): 4.8 (2×) and 5.4 and 5.1 (2×) and 6.4 and 5.7

CC(=O)N[C@H]1[C@H](O[C@H]2[C@H](O[C@H](C)C(=O)NCCCC[C@H]3NC(=O)[C@@H](CCC(=O)N[C@@H](Cc4c[nH]c5ccccc45)C(=O)O)NC3=O)[C@@H](NC(C)=O)C(O)O[C@@H]2CO)O[C@H](CO)[C@@H](O)[C@@H]1O (stereo partly drawn) [Compound 33b, cyclo-D-Lys(N-acetyl-Glycosamine-N-acetyl-muramil)-D-Glu-(L-Trp-OH)]
adjuvant activity (FIG. 4), doses at which active (Anti-OVA antibody titers): not an active compound
Anti-protein antibody titer (pooled sera) (Anti-OVA antibody titers; 1 μg per animal): 5.1
Stimulation index (Anti-OVA antibody titers; 1 μg per animal): 3.5
Anti-protein antibody titer (pooled sera) (Anti-OVA antibody titers; 10 μg per animal): 5.4
Stimulation index (Anti-OVA antibody titers; 10 μg per animal): 4.1
Anti-protein antibody titer (pooled sera) (Anti-OVA antibody titers; [3]): 4.8
Stimulation index (Anti-OVA antibody titers; [4]): 2.9
Anti-protein antibody titer (for individual sera) (Anti-OVA antibody titers; [5]): 5.2 and 4.8 (4×) and 4.5 and 5.1
Anti-protein antibody titer (for individual sera) (Anti-OVA antibody titers; [6]): 4.8 and 4.5 and 5.2 and 5.1 and 5.4 (2×) and 4.3
Anti-protein antibody titer (for individual sera) (Anti-OVA antibody titers; [7]): 4.8 and 5.4 (3×) and 4.2 and 5.1 (2×)

CC1NC(=O)C(CC(=O)NC(Cc2c[nH]c3ccccc23)C(=O)[O-])NC1=O.[Na+] (centres unmarked) [cyclo-DAla-DAsp-(DTrp-ONa)]
% suppression [1, 2]: 55%
Colony count CFU-8 - S per 10^5 cells M ± m [1, 2]: 6.8 ± 0.8 per 10^5 cells

C[C@H]1NC(=O)[C@@H](CCC(=O)N[C@H](Cc2c[nH]c3ccccc23)C(=O)[O-])NC1=O.[Na+] [cyclo-DAla-DGlu-(DTrp-ONa)]
% suppression ([1]; Table 2, donor treated i/p): 70%
Colony count CFU-8 - S per 10^5 cells M ± M [1, 8]: 5.0 ± 0.3 per 10^5 cells
% suppression ([1]; Table 2, donor treated per os): 58%
Colony count CFU-8 - S per 10^5 cells M ± M ([1]; Table 2, donor treated per os): 6.0 ± 0.7 per 10^5 cells
% suppression [1, 2]: 59%
Colony count CFU-8 - S per 10^5 cells M ± m [1, 2]: 5.3 ± 0.6 per 10^5 cells

O=C(CC[C@H]1NC(=O)[C@@H](Cc2ccccc2)NC1=O)N[C@H](Cc1c[nH]c2ccccc12)C(=O)[O-].[Na+] [cyclo-DPhe-DGlu-(DTrp-ONa)]
% suppression ([1]; Table 2, donor treated per os): 28%
Colony count CFU-8 - S per 10^5 cells M ± M ([1]; Table 2, donor treated per os): 8.1 ± 0.4 per 10^5 cells
% suppression [1, 2]: 28%
Colony count CFU-8 - S per 10^5 cells M ± m [1, 2]: 8.1 ± 0.4 per 10^5 cells

O=C(CCC1NC(=O)C(Cc2ccc(O)cc2)NC1=O)NC(Cc1c[nH]c2ccccc12)C(=O)O (centres unmarked) [cyclo-DTyr-DGlu-(DTrp-OH)]
% suppression ([1]; Table 2, donor treated per os): 44%
Colony count CFU-8 - S per 10^5 cells M ± M ([1]; Table 2, donor treated per os): 6.3 ± 0.9 per 10^5 cells

O=C(CCC1NC(=O)C(Cc2ccc(O)cc2)NC1=O)NC(Cc1c[nH]c2ccccc12)C(=O)[O-].[Na+] (centres unmarked) [cyclo-DTyr-DGlu-(DTrp-ONa)]
% suppression [1, 2]: 44%
Colony count CFU-8 - S per 10^5 cells M ± m [1, 2]: 6.3 ± 0.9 per 10^5 cells

CC1NC(=O)C(CCC(=O)NC(Cc2c[nH]c3ccccc23)C(=O)[O-])NC1=O.[Na+] (centres unmarked) [cyclo-LAla-LGlu-(DTrp-ONa)]
% suppression ([1]; Table 2, donor treated i/p): 20%
Colony count CFU-8 - S per 10^5 cells M ± M [1, 8]: 8.8 ± 0.2 per 10^5 cells

γDGlu-DTrp [Thymodepressin, reference compound]
% suppression ([1]; Table 2, donor treated i/p): 55%
Colony count CFU-8 - S per 10^5 cells M ± M [1, 8]: 6.3 ± 0.6 per 10^5 cells
% suppression [1, 9]: 51%
Colony count CFU-8 - S per 10^5 cells M ± m [1, 9]: 5.7 ± 0.4 per 10^5 cells
% suppression [1, 2]: 0%
Colony count CFU-8 - S per 10^5 cells M ± m [1, 2]: 10.2 ± 0.3 per 10^5 cells
% suppression [1, 10]: 33%
Colony count CFU-8 - S per 10^5 cells M ± m [1, 10]: 8.0 ± 0.5 per 10^5 cells
% suppression [1, 11]: 41%
Colony count CFU-8 - S per 10^5 cells M ± m [1, 11]: 6.4 ± 0.5 per 10^5 cells
% suppression [1, 12]: 52%
Colony count CFU-8 - S per 10^5 cells M ± m [1, 12]: 5.1 ± 0.2 per 10^5 cells
effect on CFU-S population in the bone marrow of intact mice ([1]; text statement on Table 2): decreased the CFU-S population in the bone marrow
